Results from US20050118596A1, “Method for screening for compounds having hdac inhibitory activity” (priority 2002, published 2005).
Where two headings read alike, the source gives them in different places. Where a SMILES comes first, the peptide text is derived from it. [ ]: non-standard residue; d: D form. ξ: configuration not given here. Aoe(9ξ) = N[C@@H](CCCCCC(=O)C1CO1)C(=O)O; dPip = O=C(O)[C@H]1CCCCN1

How the values were obtained:
[1] = system: Fra-1 mRNA in HCT116 cells; assay: Fra-1 mRNA levels by Q-PCR in HCT116 cells after HDAC inhibitor treatment; format: cell-based; details: for mrna remaining at 0.1 µM: Homo sapiens, HCT-116, 100 nM drug, read-out: % Fra1 mRNA remaining; for % Fra1 mRNA remaining: 100 nM drug
Procedure: (§1) H1299 cells and HCT116 cells (ATCC, Manassas, Va.) are cultured and exposed to Tpx A or Compound A and levels of Fra-1 message assayed. In these experiments, H1299 cells are cultured as described in Example 1. HCT116 cells are cultured in RPMI 1640 medium containing 10% fetal calf serum at 37° C. and 5% CO2. 100 nM trapoxin, 100 nM Compound A or 100 nM DMSO are added to the cells at 60% confluence and grown up for either 6 or 24 hours. Using methodologies as described in Example 1 above, the RNA from cultures treated with Tpx A, Compound A or DMSO as a control is obtained and analysed by Q-PCR for Fra-1 levels; in this case, 8.7 ng total RNA in 12 μl DEPC-H2O are prepared in MicroAmp optical 96 well reaction plates (Applied Biosystems) together with 13 μl TaqMan PCR reagent mix as provided in Table 1.

[2] = system: histone deacetylase activity purified from H1299 cells; assay: Histone deacetylase activity, release of tritium labeled acetyl groups from acetylated Histone H4 peptide; format: biochemical, Human; details: HDAC activity purified from H1299 cells, 2 hours at 37° C.
Procedure: Using conventional methodologies, the actual enzyme activity of […] was examined in the presence of Trapoxin A, Compound A or Compound B. Briefly, 30,000 cpms of a tritium labeled acetylated Histone H4 peptide is incubated with histone deacetylase activity purified from H1299 cells by ion exchange chromatography in HDAC assay buffer (10 mM Tris-Cl, pH 8.0, 10 mM NaCl, 10% glycerol) in the presence or absence of drug. The mixture is allowed to sit for 2 hours at 37° C. and radio-labeled acetyl groups released by histone deacetylase activity extracted into ethyl acetate and counted on a scintillation counter. The IC50 represents the concentration of drug that inhibits 50% of the histone deacetylase activity obtained in the absence of drug.

[3] = system: Fra-1 mRNA in H1299 cells; assay: Fra-1 mRNA levels by Q-PCR in H1299 cells after HDAC inhibitor treatment; format: cell-based, Human; details: for mrna remaining at 0.1 µM: Homo sapiens, NCI-H1299, read-out: % Fra1 mRNA remaining; for mrna remaining at 0.1 µM / % Fra1 mRNA remaining: H1299 cells
Procedure: Human H1299 non-small cell lung carcinoma cells (ATCC, Manassas, Va.) (ATCC #CRL-5803) are cultured in RPMI 1640 medium (Life Technologies, Gaithersburg, Md.) containing 10% fetal bovine serum (FBS, Life Technologies) plus 50 μg/ml Gentamycin (Life Technologies) in a humidified incubator with a 5% CO2 atmosphere at 37° C. Prior to Tpx A treatment, H1299 cells are plated at a density of 2×10^5 cells/well in 6 well plates (Costar, Corning, N.Y.) and grown up for 24 h. Tpx A (1 mM stock solution in DMSO) is added to the cells at concentrations from 1 to 1000 nM and cells are incubated for either 24 or 48 hours at 37° C.
(§2) Total RNA from Tpx A treated as well as untreated H1299 and A549 cells is prepared using the RNeasy Mini kit (Qiagen, Hilden, Germany) according to the manufacturers instructions. The RNA is recovered in 50 μl DEPC-treated H2O (RNase free) and the RNA concentration is determined by measuring the OD260 in a SpectraMax photometer (Molecular Devices, Sunnyvale, Calif.).
(§3) Sequences for primers (BIG, Freiburg, Germany) and TaqMan probes for Q-PCR containing 5′ FAM fluorescent reporter and 3′ TAMRA quencher dyes (Eurogentec, Seraing, Belgium) are selected using the Primer Express Software (Applied Biosystems, Foster City, Calif.) at default settings; Primer TM Requirements: Min Tm: 58° C., Max Tm:60° C., Optimal Tm: 59° C., Maximal Tm difference: 2° C. Primer GC Content Requirements: Min %GC 30, Max %GC 80, 3′ clamp of 0 residues. Primer Length Requirements: Min length: 9, Max length: 40, optimal length: 20. Amplicon Requirements: Min Tm: 0° C., Max Tm: 85° C., Min length: 50, Max length: 150. TaqMan Probe Criteria: TaqMan probe Tm must be 10° C. greater than PCR primer Tm.
(§4) Q-PCR is performed using the TaqMan PCR Core reagent kit (Applied Biosystems Foster City, Calif.) in a ABI Prism 7700 sequence detector (Applied Biosystems) according to the manufacturers instructions. 50 ng total RNA in 12 μl DEPC-H2O are prepared in MicroAmp optical 96 well reaction plates (Applied Biosystems) together with 13 μl TaqMan PCR reagent mix as provided in Table 1.
(§5) Settings for reverse transcription of the target RNA and detection by Q-PCR are 50° C. for 2 min., 95° C. for 10 min. followed by 50 cycles of 95° C. for 15 sec and 60° C. for 1 min. Relative measurement of the amplified product is performed using the comparative CT method as described in the manufacturer's manual (Applied Biosystems, ABI Prism 7700 sequence detection system, User Bulletin #2).
as §1

Fra-1 mRNA in A549 cells [4] = assay: Fra-1 mRNA levels by Q-PCR in A549 cells after HDAC inhibitor treatment; format: cell-based, Human; details: for mrna remaining at 0.1 µM: Homo sapiens, 100 nM, n = 4 (Example 3), read-out: % Fra1 mRNA remaining; for mrna remaining at 0.1 µM / % Fra1 mRNA remaining: A549 cells
Procedure: Human A549 non-small lung carcinoma cells (ATCC CCL-185, Manassas, Va.) are cultured in DMEM medium (Life Technologies, Gaithersburg, Md.) containing 4500 mg/l glucose, 10% fetal bovine serum (FBS, Life Technologies) plus 50 μg/ml Gentamycin (Life Technologies) in a humidified incubator with a 5% CO2 atmosphere at 37° C. Prior to Tpx A treatment, A549 cells are plated at a density of 2×10^5 cells/well in 6 well plates (Costar, Corning, N.Y.) and grown up for 24 h. Tpx A (1 mM stock solution in DMSO) is added to the cells at concentrations from 1 to 1000 nM and cells are incubated for either 24 or 48 hours h at 37° C.
as §2, §3, §4, §5
Human A549 non-small cell lung carcinoma cells (ATCC, Manassas, Va.) (ATCC #CCL-185) are cultured in DMEM medium (Life Technologies, Gaithersburg, Md.) containing 10% fetal bovine serum (FBS, Life Technologies) plus 50 μg/ml Gentamycin (Life Technologies) in a humidified incubator with a 5% CO2 atmosphere at 37° C. Prior to Compound B treatment, A549 cells are plated at a density of 5×10^4 cells/well in 24 well plates (Costar, Corning, N.Y.) and grown up for 24 h. Compound B (10 mM stock solution in DMSO) is diluted to a final concentration of 100 nM in tissue culture medium and added to the cells. As control an equivalent amount of DMSO is added to control cultures without Compound B. The cells are incubated at 37° C. for either 16, 24 or 48 hrs. All cell cultures are set up in duplicate. Total RNA from the compound—treated as well as untreated A549 cells is prepared using the RNeasy Mini kit (Qiagen, Hilden, Germany) according to the manufacturer's instructions. The RNA is recovered in 50 μl DEPC-treated H2O (RNase free) and the RNA concentration is determined by measuring the OD260 in a SpectraMax photometer (Molecular Devices, Sunnyvale, Calif.). The amount of RNA is adjusted to 5 ng/microliter.
DNA sequence of the Fra-1 primers and probes are as described above. Settings for reverse transcription of the target RNA and detection by Q-PCR are 50° C. for 2 min., 95° C. for 10 min. followed by 50 cycles of 95° C. for 15 sec and 60° C. for 1 min. […]

[5] = target: histone deacetylase activity purified from H1299 cells by ion exchange chromatography (human); assay: cell-based or functional assay
[6] = system: Fra-1 mRNA in H1299 cells; assay: Fra-1 mRNA expression by conventional microarray technology in H1299 cells; format: cell-based, Human; details: in the presence of TPX A, data not shown
Fra-1 mRNA in A549 cells [7] = assay: Fra-1 mRNA expression by conventional microarray technology in A549 cells; format: cell-based, Human; details: in the presence of TPX A, data not shown

O=C(/C=C/c1ccc(CNCCc2c[nH]c3ccccc23)cc1)NO [Compound A, N-Hydroxy-3-[4-[[[2-(1H-indol-3-yl)-ethyl]-amino]methyl]phenyl]-2E-2-propenamide]
mrna remaining at 0.1 µM ([1]; 6 hr): 32.6% | mrna remaining at 0.1 µM ([1]; 24 hr): 15.9% | IC50 [2]: 0.063 ± 0.01 µM | mrna remaining at 0.1 µM ([3]; 100 nM drug, 6 hr (Example 2)): 7.14% | mrna remaining at 0.1 µM ([3]; 100 nM drug, 24 hr (Example 2)): 2.07%

O=C(/C=C/c1ccc(CN(CCO)CCc2c[nH]c3ccccc23)cc1)NO [Compound B, N-Hydroxy-3-[4-[[(2-hydroxyethyl)[2-(1H-indol-3-yl)-ethyl]-amino]methyl]phenyl]-2E-2-propenamide]
mrna remaining at 0.1 µM (Fra-1 mRNA in A549 cells [4]; 16 hr): 15% | mrna remaining at 0.1 µM (Fra-1 mRNA in A549 cells [4]; 24 hr): 14.1% | mrna remaining at 0.1 µM (Fra-1 mRNA in A549 cells [4]; 48 hr): 52.8% | IC50 [2]: 0.032 ± 0.017 µM

trapoxin A (peptide)
IC50/µM on histone deacetylase (release of tritium-labelled acetyl groups from an acetylated Histone H4 peptide) [5]: 2.2 µM

O=C(CCCCC[C@@H]1NC(=O)[C@H]2CCCCN2C(=O)[C@H](Cc2ccccc2)NC(=O)[C@H](Cc2ccccc2)NC1=O)C1CO1 (some centres unmarked) [TPX A, trapoxin A] (cyclo(FF[dPip][Aoe(9ξ)]))
repression of Fra-1 mRNA expression (microarray) [6]: > 200 fold | IC50 (Fra-1 mRNA in A549 cells [4]; A549 cell line, Tpx A treatment, Q-PCR, read-out: IC50 for Fra-1 mRNA down regulation): 10 to 50 nM | % Fra1 mRNA remaining (Fra-1 mRNA in A549 cells [4]; 24 hours, 1 nM TPX A): 95% | % Fra1 mRNA remaining (Fra-1 mRNA in A549 cells [4]; 24 hours, 10 nM TPX A): 64% | % Fra1 mRNA remaining (Fra-1 mRNA in A549 cells [4]; 24 hours, 50 nM TPX A): 26% | % Fra1 mRNA remaining (Fra-1 mRNA in A549 cells [4]; 24 hours, 100 nM TPX A): 16% | % Fra1 mRNA remaining (Fra-1 mRNA in A549 cells [4]; 24 hours, 250 nM TPX A): 6% | % Fra1 mRNA remaining (Fra-1 mRNA in A549 cells [4]; 24 hours, 500 nM TPX A): 4% | % Fra1 mRNA remaining (Fra-1 mRNA in A549 cells [4]; 24 hours, 1000 nM TPX A): 3% | % Fra1 mRNA remaining (Fra-1 mRNA in A549 cells [4]; 48 hours, 1 nM TPX A): 93% | % Fra1 mRNA remaining (Fra-1 mRNA in A549 cells [4]; 48 hours, 10 nM TPX A): 84% | % Fra1 mRNA remaining (Fra-1 mRNA in A549 cells [4]; 48 hours, 50 nM TPX A): 38% | % Fra1 mRNA remaining (Fra-1 mRNA in A549 cells [4]; 48 hours, 100 nM TPX A): 32% | % Fra1 mRNA remaining (Fra-1 mRNA in A549 cells [4]; 48 hours, 250 nM TPX A): 14% | % Fra1 mRNA remaining (Fra-1 mRNA in A549 cells [4]; 48 hours, 500 nM TPX A): 7% | % Fra1 mRNA remaining (Fra-1 mRNA in A549 cells [4]; 48 hours, 1000 nM TPX A): 6% | % Fra1 mRNA remaining ([1]; 6 hr): 14.25% | % Fra1 mRNA remaining ([1]; 24 hr): 13.68% | IC50 [2]: 2.2 ± 0.96 µM | repression of Fra-1 mRNA expression (microarray) (Fra-1 mRNA in A549 cells [7]): > 200 fold | IC50 ([3]; H1299 cell line, Tpx A treatment, Q-PCR, read-out: IC50 for Fra-1 mRNA down regulation): 1 to 10 nM | % Fra1 mRNA remaining ([3]; 100 nM drug, 6 hr (Example 2)): 5.81% | % Fra1 mRNA remaining ([3]; 100 nM drug, 24 hr (Example 2)): 3.11% | % Fra1 mRNA remaining ([3]; 24 hours, 1 nM TPX A): 98% | % Fra1 mRNA remaining ([3]; 24 hours, 10 nM TPX A): 2% | % Fra1 mRNA remaining ([3]; 24 hours, 50 nM TPX A): 1% | % Fra1 mRNA remaining ([3]; 24 hours, 100 nM TPX A): 1% | % Fra1 mRNA remaining ([3]; 24 hours, 250 nM TPX A): 1% | % Fra1 mRNA remaining ([3]; 24 hours, 500 nM TPX A): 1% | % Fra1 mRNA remaining ([3]; 24 hours, 1000 nM TPX A): 1% | % Fra1 mRNA remaining ([3]; 48 hours, 1 nM TPX A): 94% | % Fra1 mRNA remaining ([3]; 48 hours, 10 nM TPX A): 7% | % Fra1 mRNA remaining ([3]; 48 hours, 50 nM TPX A): 1% | % Fra1 mRNA remaining ([3]; 48 hours, 100 nM TPX A): 1% | % Fra1 mRNA remaining ([3]; 48 hours, 250 nM TPX A): 1% | % Fra1 mRNA remaining ([3]; 48 hours, 500 nM TPX A): 1% | % Fra1 mRNA remaining ([3]; 48 hours, 1000 nM TPX A): 1%
